Laboratory results published in paper PMC5845353, “The selective cathepsin K inhibitor MIV-711 attenuates joint pathology in experimental animal models of osteoarthritis” (Journal of Translational Medicine, 2018).
Several values for one entry are separate records, joined by “and”; a condition that tells them apart may be missing. Equal entries are not always repeated.

Legend:
[1] = Synovial fluid concentrations of MIV-711 in dogs; assay type: in vivo; conditions: dog
Method: Synovial fluid was collected from as many dogs as possible immediately before surgery and then again during necropsy from both operated and contralateral knees. The fluid was sampled directly without lavage using a syringe. The synovial fluid was transferred into tubes containing EDTA. The samples were spun in a centrifuge, and the supernatant was collected and stored at − 70 °C until analysis.
To measure MIV-711 concentrations, 10–50 µL of plasma or synovial fluid was mixed with 30–150 µL of acetonitrile, samples were centrifuged (10 min, 20,000g, 7 °C) and 5 µL of the supernatant was injected onto the LC–MS/MS system. The lower limit of quantification (LLOQ) was 1 nmol/L.

[2] = test system: dogs subjected to partial medial meniscectomy; assay: Dog partial medial meniscectomy study, sclerosis of subchondral bone and bone area; assay type: in vivo
Description: Sclerosis of subchondral bone (an indication of altered load-bearing) was described and documented for femur using a comparison of medial to lateral, but was not included in the overall cartilage degeneration scores. This parameter was scored based on percent width of the medial femur with obviously thickened subchondral bone according to the following criteria: 0=normal 1=up to 10% of femur width has thickened trabeculae 2=11-30 % of femur width has thickened trabeculae 3=31-60 % of femur width has thickened trabeculae 4=61-90 % of femur width has thickened trabeculae 5=>90% of femur width has thickened trabeculae An additional measure of bone area was performed as follows: The photo file was opened and a fixed segment of 1000 by 400 pixels was selected with the bottom left and right corners touching the tidemark: The selected segment was opened in a new file and segmented into fourths: Black lines were drawn on the three segmenting lines in areas of no bone: Lengths of each individual drawn segment were summed per line for a total length of area of no bone, then divided by the total length of the image and calculated into a percent. Percent of no bone was calculated for each of the three segmented lines and then averaged for a mean percent of no bone for the image.

[3] = dog partial medial meniscectomy, group Mean
[4] = dog partial medial meniscectomy, versus Vehicle group

Structure (SMILES): C#C[C@@H]1CN(C(=O)[C@H](CC(C)C)NC(=O)c2ccc(-c3nc(N4CCN(C)CC4)sc3F)cc2)[C@@H]2C(=O)CO[C@H]12 [MIV-711]
- MIV-711 levels in synovial fluid ([1]; 24 h after first dose and 24 h after last dose of 30 µmol/kg): low but measurable
- MIV-711 levels in synovial fluid, injured left knee compared to right knee ([1]; at sacrifice, 24 h after last dose of 30 µmol/kg): fivefold higher
- Bone Score ([2]; MIV-711 group mean, sclerosis of subchondral bone): 3.07
- % inhibition, Bone Score ([2]; MIV-711 group vs vehicle): 4%
- Percent Length of no Bone, LFC Mean [2, 3]: 57%
- Percent Length of no Bone, LFC Site 1 [2, 3]: 59%
- Percent Length of no Bone, LFC Site 2 [2, 3]: 58%
- Percent Length of no Bone, LFC Site 3 [2, 3]: 54%
- Percent Length of no Bone, MFC Mean [2, 3]: 39%
- Percent Length of no Bone, MFC Site 1 [2, 3]: 42%
- Percent Length of no Bone, MFC Site 2 [2, 3]: 39%
- Percent Length of no Bone, MFC Site 3 [2, 3]: 36%
- Percent Length of no Bone, Overall Mean [2, 3]: 48%
- Percent Length of no Bone, LFC Site 2 ([2]; dog partial medial meniscectomy, individual animal, LFC site 2): 50% and 62% and 55% and 63% and 66% and 57% and 51% and 54% and 59% and 45% and 60% and 72%
- Percent Length of no Bone, LFC Site 3 ([2]; dog partial medial meniscectomy, individual animal, LFC site 3): 42% and 48% and 49% and 64% and 60% and 58% and 45% and 59% and 47% and 46% and 56% and 71% and 52%
- Percent Length of no Bone, MFC Site 1 ([2]; dog partial medial meniscectomy, individual animal, MFC site 1): 47% and 50% and 24% and 35% and 52% and 38% and 36% and 57% and 44% and 48% and 51% and 21%
- Percent Length of no Bone, MFC Site 2 ([2]; dog partial medial meniscectomy, individual animal, MFC site 2): 32% and 42% and 21% and 39% and 46% and 38% and 52% and 37% and 34% and 51% and 27% and 57% and 26% and 36%
- Percent Length of no Bone, MFC Site 3 ([2]; dog partial medial meniscectomy, individual animal, MFC site 3): 34% and 33% and 21% and 36% and 51% and 24% and 32% and 22% and 49% and 44% and 41% and 40%
- Percent Length of no Bone, LFC Site 1 ([2]; dog partial medial meniscectomy, individual animal, lateral femoral condyle site 1): 58% and 64% and 49% and 53% and 63% and 54% and 70% and 57% and 61% and 46% and 66% and 67%
- Percent Length of no Bone, LFC Mean ([2]; dog partial medial meniscectomy, individual animal, mean of LFC sites 1-3): 50% and 58% and 51% and 60% and 63% and 56% and 55% and 54% and 52% and 70%
- Percent Length of no Bone, MFC Mean ([2]; dog partial medial meniscectomy, individual animal, mean of MFC sites 1-3): 38% and 42% and 22% and 37% and 50% and 33% and 51% and 35% and 30% and 52% and 46%
- Percent Length of no Bone, Overall Mean ([2]; dog partial medial meniscectomy, individual animal, overall mean LFC and MFC): 44% and 50% and 37% and 48% and 56% and 45% and 53% and 54% and 46% and 49%
- % inhibition of Percent Length of no Bone, LFC Mean [2, 4]: 1%
- % inhibition of Percent Length of no Bone, LFC Site 1 [2, 4]: -4%
- % inhibition of Percent Length of no Bone, LFC Site 2 [2, 4]: 2%
- % inhibition of Percent Length of no Bone, LFC Site 3 [2, 4]: 6%
- % inhibition of Percent Length of no Bone, MFC Mean [2, 4]: -10%
- % inhibition of Percent Length of no Bone, MFC Site 1 [2, 4]: -12%
- % inhibition of Percent Length of no Bone, MFC Site 2 [2, 4]: 1%
- % inhibition of Percent Length of no Bone, MFC Site 3 [2, 4]: -21%
- % inhibition of Percent Length of no Bone, Overall Mean [2, 4]: -3%
- effects on subchondral bone sclerosis and bone area at the microscopic level ([2]; dog, 30 µmol/kg): no significant effects
- Bone Score ([2]; individual dogs of MIV-711 group, scoring of sclerosis of subchondral bone): 5 and 3 and 4 and 2 and 1
